Our source for the LD50 values is patent publication US4072744A, “N^2 -naphthalenesulfonyl-L-argininamides and the pharmaceutically acceptable salts thereof” (Mitsubishi Chemical Industries Limited, priority 1974, dated 1978).

Molecules are shown by their SMILES.

The nature of the series: acute toxicity (LD50) by intraperitoneal administration in mice. To be noted: mouse, in vivo, ip, mice (male, 20 g). The text has this:
Representative LD50 values, for example, for N^2 -(5,6,7,8-tetrahydro-1-naphthalenesulfonyl)-N-methoxyethylglycine, N^2 -(7-methyl-2-naphthalenesulfonyl)-N-butylglycine and N^2 -(6,7-dimethyl-1-naphthalenesulfonyl)-N-methoxyethylglycine are above 1,500 milligrams per kilogram, respectively.
On to `CCCCN(CC(=O)O)C(=O)[C@H](CCCNC(=N)N)NS(=O)(=O)c1ccc2ccc(C)cc2c1` [Sample 14, N^2-(7-methyl-2-naphthalenesulfonyl)-L-arginyl-N-butylglycine], for which the LD50 is over 1500 mg/kg.
The value for `COCCN(CC(=O)O)C(=O)[C@H](CCCNC(=N)N)NS(=O)(=O)c1cccc2cc(C)c(C)cc12` [Sample 23, N^2-(6,7-dimethyl-1-naphthalenesulfonyl)-L-arginyl-N-methoxyethylglycine] was over 1500 mg/kg; that for `COCCN(CC(=O)O)C(=O)[C@H](CCCNC(=N)N)NS(=O)(=O)c1cccc2c1CCCC2` [Sample 3, N^2-(5,6,7,8-tetrahydro-1-naphthalenesulfonyl)-L-arginyl-N-methoxyethylglycine] was over 1500 mg/kg.

Broadly, the LD50 is the dose expected to kill half of the subjects tested. A low value points to greater toxicity.
